The record followed here is ChEMBL document CHEMBL1133933, “Imidazolopyrazinones as potential antioxidants” (Bioorg Med Chem Lett, 2001).

Assay [1] in a line: Krel expressed as Ki with respect to Ktrolox.
Assay [2] can be described thus: Reaction rate constant of the compound.

Regarding `Cl.Oc1c(Cc2ccccc2)nc2cnc(-c3ccccc3)cn12`, in assay [1], the Krel stood at 3.8. Besides, in assay [2], the reaction rate constant was found to be 65000 M⁻¹ s⁻¹.
Compound `Cl.Oc1ccc(-c2cn3c(O)c(-c4ccccc4)nc3cn2)cc1` had a Krel in assay [1] of 6.2. Further, in assay [2], the reaction rate constant stood at 105000 M⁻¹ s⁻¹.
Consider `Cl.Oc1ccc(-c2cn3c(O)c(Cc4ccccc4)nc3cn2)cc1`, for which the Krel in assay [1] came to 1.9. Moreover, the reaction rate constant in assay [2] is 33000 M⁻¹ s⁻¹.
Turning to `Cc1nc2cnc(-c3ccc(O)cc3)cn2c1O.Cl`, the Krel in assay [1] came out at 12.3. In addition, the reaction rate constant in assay [2] is 210000 M⁻¹ s⁻¹.
With `Cc1nc2cnccn2c1O.Cl`, in assay [1], the Krel came to 3.5. Moreover, the reaction rate constant in assay [2] was found to be 60000 M⁻¹ s⁻¹.
`Oc1ccc(Cc2nc3c(Cc4ccccc4)nc(-c4ccc(O)cc4)cn3c2O)cc1` [COELENTERAZINE] yielded a Krel in assay [1] of 7.1. The reaction rate constant in assay [2] was determined as 120000 M⁻¹ s⁻¹.
As to `COc1ccc(-c2cn3c(O)c(C)nc3cn2)cc1.Cl`, in assay [1], the Krel is 16.5. In assay [2], the reaction rate constant worked out at 280000 M⁻¹ s⁻¹.
For `Cl.Oc1c(Cc2ccccc2)nc2cnccn12`, in that order: 1.6 and 28000 M⁻¹ s⁻¹.
The compound `Cc1c(C)c2c(c(C)c1O)CCC(C)(C(=O)O)O2` (stereo unspecified) [TROLOX] returned a Krel in assay [1] of 1. This compound also had a reaction rate constant in assay [2] of 17000 M⁻¹ s⁻¹.
With `COc1ccc(-c2cn3c(O)c(Cc4ccccc4)nc3cn2)cc1.Cl`, the Krel in assay [1] is 9.4. For the same compound, the reaction rate constant in assay [2] stood at 160000 M⁻¹ s⁻¹.
In assay [1], `COc1ccc(-c2cn3c(O)c(Cc4ccc(O)cc4)nc3c(Cc3ccccc3)n2)cc1` came in with a Krel of 5.6. The compound also came in with a reaction rate constant in assay [2] of 96000 M⁻¹ s⁻¹.
In the case of `Cc1nc2cnc(-c3ccccc3)cn2c1O.Cl`, the Krel in assay [1] stood at 10. The reaction rate constant in assay [2] is 170000 M⁻¹ s⁻¹.
In assay [1], `Cl.Oc1c(-c2ccccc2)nc2cnccn12` returned a Krel of 4.9. Moreover, in assay [2], the reaction rate constant was 84000 M⁻¹ s⁻¹.
